Values of other authors in patent US11382956B2, “Amylin analogues” (Zealand Pharma A/S, priority 2016, dated 2022).

Conditions: WO99/34764; cited from earlier work

Substance: ^2,7cyclo-[2Asp,7Lys]-h-amylin
- potency compared with other amylin analogues and human amylin: considerably lower potency
